Reference: publication PMC6582486, “Stapled EGFR peptide reduces inflammatory breast cancer and inhibits additional HER-driven models of cancer” (Journal of Translational Medicine, 2019)
Where a SMILES comes first, the peptide text is derived from it. Bridges are numbered along the chain shown (N, C = ends). [ ]: non-standard residue; d: D form. R8 = C=CCCCCCC[C@@](C)(N)C(=O)O; S5 = C=CCCC[C@](C)(N)C(=O)O

Legend:
[1] = system: EGFR T790M mutated H1975 lung adenocarcinoma cells; assay: Cell viability assay (MTT), H1975; assay type: cell-based; conditions: H1975 (HER1 T790M), 10 µM, 72 h
Procedure: 1000–3000 cells were plated in 96-well plates (Falcon; Corning, NY) and allowed to adhere for 24–48 h prior to therapeutic introduction. Compounds were added and incubated on cells for 3 days in serum-containing media, followed by 2 h treatment with MTT (Sigma M5655) with the resulting formazan solubilized in DMSO. Absorbance was read at 540 nm by plate reader (uQuant, Bio-Tek Instruments). P-values were calculated from a one-way ANOVA.
Fig. 3 SAH5-EJ1 inhibits growth and prolongs survival in PDX models of lung cancer. a, b Cell viability assays performed in A549 or EGFR T790M mutated H1975 lung adenocarcinoma cells over 3 days comparing treatment with Sapitinib (blue lines) to SAH5-EJ1 (red lines). Solid lines represent 24 h; dashed lines represent 72 h. Data shown represent mean ± percent difference of assays performed in quadruplicate. c Reduction in tumor burden in Erlotinib-resistant lung cancer PDX mouse model TM00784 with various doses of intravenous SAH5-EJ1. Control represents water as a vehicle control. *p < 0.05 (Control vs 1 µg/g); **p < 0.01 (Control vs 1 µg/g and vs 10 µg/g). d Kaplan–Meier curve of lung PDX mouse model treated with control (blue line) or either 1 or 10 µg/g SAH5-EJ1 (green line and red line, respectively). Data shown represent mean. N = 6 for all groups

SUM149-generated tumors = assay: Inflammatory breast cancer SUM149 mouse model; assay type: in vivo, SCID mice
Procedure: 26 female SCID mice were injected with 0.1 mL of a cell solution containing 3.84 × 10^6 SUM149 cells resuspended in Trevigen and sterile saline at site L4. Mice were incubated for 35 days to allow tumor growth prior to injection of SAH5-EJ1, and randomized into 3 groups, N = 8 mice/group. Injections of 5 µg/g or 0.5 µg/g in 0.1 mL volumes of SAH5-EJ1 were administered via tail vein every 3 days for 31 days until the administration route changed to intraperitoneal injections through the conclusion of the study. Control injections of equal volumes of sterile water were also performed. All animals were maintained as outlined by University of Arizona Institutional Animal Care and Use Committee (IACUC) by the Experimental Mouse Shared Resource (EMSR).
Fig. 4 SAH5-EJ1 effectively treats models of basal and inflammatory breast cancers while increasing survival. a Changes in tumor burden in breast cancer PDX mouse model TM01278 with various concentrations of intravenous SAH5-EJ1. Control represents water as a vehicle control. *p < 0.05 (Control vs 1 µg/g); **p < 0.01 (Control vs 1 µg/g and vs 10 µg/g). N = 6 for each condition. b Kaplan–Meier curve of breast PDX mouse model treated with control (blue) or either 1 or 10 µg/g SAH5-EJ1 (green and red, respectively) (red asterisks indicate time point at which mice could no longer receive injections due to site toxicity). Data shown represent mean. N = 6 for all groups. c Cell viability assay performed in SUM149 cells over 3 days comparing treatment with Sapitinib (blue) to SAH5-EJ1 (red) and SAH5-CP (grey). Solid lines represent 24 h; dashed lines represent 72 h. Data shown represent mean ± percent difference of assays performed in triplicate. d Kaplan–Meier curve of inflammatory breast cancer SUM149-injected mouse model treated with injected control (water) (blue) or either 0.5 or 5 µg/g SAH5-EJ1 (green and red, respectively). Data shown represent mean. N = 8 for all groups. e Changes in tumor burden in SUM149-generated tumors with various doses of SAH5-EJ1. Control represents water (blue). […]

SMILES: CC[C@H](C)[C@H](NC(=O)[C@H](Cc1c[nH]cn1)NC(=O)[C@H](CCCNC(=N)N)NC(=O)[C@H](CCCNC(=N)N)NC(=O)[C@H](CCCNC(=N)N)NC(=O)[C@H](CCSC)NC(=O)[C@H](Cc1ccccc1)NC(=O)[C@H](C)NC(=O)[C@H](CCCNC(=N)N)NC(=O)[C@H](C)NC(=O)[C@H](CCC(N)=O)NC(=O)[C@H](CCCNC(=N)N)NC(=O)[C@H](C)NC(=O)[C@H](C)NC(=O)[C@H](C)NC(=O)[C@H](CCCNC(=N)N)NC(=O)[C@H](C)NC(=O)[C@@H](N)Cc1ccc(O)cc1)C(=O)N[C@H](C(=O)N[C@@H](CCCNC(=N)N)C(=O)N[C@@H](CCCCN)C(=O)N[C@@H](CCCNC(=N)N)C(=O)N[C@]1(C)CCCCCCC=CCCC[C@@](C)(C(=O)N[C@@H](CCCNC(=N)N)C(=O)N[C@@H](CCC(=O)O)C(N)=O)NC(=O)[C@H](CCC(N)=O)NC(=O)[C@H](CC(C)C)NC(=O)[C@H](CC(C)C)NC(=O)[C@H](CCCNC(=N)N)NC(=O)[C@H](CCCNC(=N)N)NC(=O)[C@H](CC(C)C)NC1=O)C(C)C [SAH5-EJ1] (H-YARAAARQARAFMRRRHIVRKR[R8]LRRLLQ[S5]RE-NH2; staple 23-30)
- cell death [1]: 100%
- time of treatment until all animals showed no residual tumor burden (SUM149-generated tumors; 0.5 or 5 µg/g every 3 days, IV then IP): ≤ 55 days
- treated mice displaying tumor regrowth (SUM149-generated tumors; 0.5 or 5 µg/g groups together): 9/16
- treated mice remaining at the end of the study (SUM149-generated tumors; 0.5 or 5 µg/g, treatment up to 203 days): more than 40%
